Laboratory results: ChEMBL document CHEMBL1201862, “PubChem BioAssay data set” (2004)
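Grown in 96-well plates, cells were treated for 48 hours with each compound at five concentrations. Insufficient inhibition: endpoint recorded as highest concentration tested. Here, GI50 denotes the concentration required for 50% inhibition of growth.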 The source made the active and inactive calls. No stated cut-off is given here; in the data, active = GI50 up to about 1.1 µM and inactive = higher.

Columns and labels:
Assay in all cases: NCI-60 cell line screen, 48 h
HCT-116 = tested on: HCT-116
Malme-3M = tested on: Malme-3M
OVCAR-8 = tested on: OVCAR-8
TK-10 = tested on: TK-10
HOP-92 = tested on: HOP-92
UACC-257 = tested on: UACC-257
SW-620 = tested on: SW-620
MOLT-4 = tested on: MOLT-4
SNB-19 = tested on: SNB-19
A549 = tested on: A549
KM12 = tested on: KM12
SNB-75 = tested on: SNB-75
SK-OV-3 = tested on: SK-OV-3
A498 = tested on: A498
786-0 = tested on: 786-0
SF-539 = tested on: SF-539
HCC 2998 = tested on: HCC 2998
HOP-62 = tested on: HOP-62

SMILES | GI50 (HCT-116) | GI50 (Malme-3M) | GI50 (OVCAR-8) | GI50 (TK-10) | GI50 (HOP-92) | GI50 (UACC-257) | GI50 (SW-620) | GI50 (MOLT-4) | GI50 (SNB-19) | GI50 (A549) | GI50 (KM12) | GI50 (SNB-75) | GI50 (SK-OV-3) | GI50 (A498) | GI50 (786-0) | GI50 (SF-539) | GI50 (HCC 2998) | GI50 (HOP-62)
C#Cc1cccc(NC(=O)/C=C\C(=O)O)c1 | > 100 µM (inactive) | > 100 µM (inactive) | > 100 µM (inactive) | > 100 µM (inactive) | > 100 µM (inactive) | > 100 µM (inactive) | > 100 µM (inactive) | > 100 µM (inactive) | > 100 µM (inactive) | > 100 µM (inactive) | > 100 µM (inactive) | > 100 µM (inactive) | > 100 µM (inactive) | > 100 µM (inactive) | > 100 µM (inactive) |  |  | 
COC1=CC(=O)C(O)=C(CC2(C)C(C)CCC3(C)C2CCCC3(C)C)C1=O (configuration not stated) | 5.12 µM (inactive) | 4.03 µM (inactive) | 4.57 µM (inactive) | 4.97 µM (inactive) | 2.38 µM (inactive) | 3.84 µM (inactive) | 4.03 µM (inactive) | 2.4 µM (inactive) | 3.58 µM (inactive) | 2.99 µM (inactive) | 6.44 µM (inactive) | 3.89 µM (inactive) | 18.2 µM (inactive) | 10.1 µM (inactive) | 3.86 µM (inactive) | 2.84 µM (inactive) | 3.6 µM (inactive) | 3.64 µM (inactive)
CCCCNC(=S)N/C=C1\C(=O)Nc2ccccc2C1=O |  | > 10 µM (inactive) | > 10 µM (inactive) | > 10 µM (inactive) | > 10 µM (inactive) | > 10 µM (inactive) | > 10 µM (inactive) | > 10 µM (inactive) | > 10 µM (inactive) | > 10 µM (inactive) | > 10 µM (inactive) |  |  | > 10 µM (inactive) | > 10 µM (inactive) | > 10 µM (inactive) | > 10 µM (inactive) | > 10 µM (inactive)
O=C1NC(=O)C(C(=O)C(=O)Nc2ccc(Cl)cc2Cl)C(=O)N1 | > 100 µM (inactive) | > 100 µM (inactive) | > 100 µM (inactive) | > 100 µM (inactive) | 36.8 µM (inactive) | > 100 µM (inactive) | > 100 µM (inactive) | > 100 µM (inactive) | > 100 µM (inactive) | > 100 µM (inactive) | 93.1 µM (inactive) |  | > 100 µM (inactive) | > 100 µM (inactive) | > 100 µM (inactive) | > 10 µM (inactive) | > 100 µM (inactive) | > 100 µM (inactive)
Cc1ccc(S(=O)(=O)N(/N=C/C=C/c2ccccc2)c2nnc(-c3ccccc3)c(-c3ccccc3)n2)cc1 |  | 30 µM (inactive) | 25.6 µM (inactive) | 24.7 µM (inactive) | 19 µM (inactive) | 13.3 µM (inactive) | 30.4 µM (inactive) | 12.9 µM (inactive) | 71.9 µM (inactive) | 16.9 µM (inactive) | 23 µM (inactive) | 22.4 µM (inactive) | 34.5 µM (inactive) | 36.8 µM (inactive) | 20.8 µM (inactive) | 16.1 µM (inactive) | 13.3 µM (inactive) | 18.3 µM (inactive)
Cc1ccc(-c2cc(-c3ccco3)c(C#N)c(=O)n2C2OC(OC(=O)c3ccccc3)C(OC(=O)c3ccccc3)C2OC(=O)c2ccccc2)cc1 (configuration not stated) | 32.1 µM (inactive) | > 100 µM (inactive) | > 100 µM (inactive) | 96.2 µM (inactive) | 24.7 µM (inactive) |  | > 100 µM (inactive) | > 100 µM (inactive) |  | > 100 µM (inactive) | > 100 µM (inactive) | > 100 µM (inactive) | > 100 µM (inactive) | > 100 µM (inactive) | 81.3 µM (inactive) | > 100 µM (inactive) | > 100 µM (inactive) | 43 µM (inactive)
CC1(Br)C(=O)NC(=O)N(C2CC(N=[N+]=[N-])C(CO)O2)C1N=[N+]=[N-] (configuration not stated) |  | 97.9 µM (inactive) | > 100 µM (inactive) | > 100 µM (inactive) | > 100 µM (inactive) | > 100 µM (inactive) | > 100 µM (inactive) | > 100 µM (inactive) | > 100 µM (inactive) | > 100 µM (inactive) | > 100 µM (inactive) | > 100 µM (inactive) | > 100 µM (inactive) | > 100 µM (inactive) | > 100 µM (inactive) | > 100 µM (inactive) | > 100 µM (inactive) | > 100 µM (inactive)
CSc1snc2sc3c(Cl)nnnc3c12 | 16 µM (inactive) | 11.4 µM (inactive) | 7.46 µM (inactive) | 16.9 µM (inactive) |  | 12.8 µM (inactive) | 3.8 µM (inactive) | 2.98 µM (inactive) | 15.8 µM (inactive) | 17.9 µM (inactive) | 16.4 µM (inactive) | 11.5 µM (inactive) | 17.7 µM (inactive) | 15 µM (inactive) | 15.9 µM (inactive) | 17.8 µM (inactive) | 6.01 µM (inactive) | 16.1 µM (inactive)
CNCC(=O)Nc1ccc2c(c1)C(=O)c1ccc(NC(=O)CNC)cc1C2=O | 1.81 µM (inactive) | 3.27 µM (inactive) | 2.69 µM (inactive) | 17.3 µM (inactive) | 1.78 µM (inactive) | 4.36 µM (inactive) | 2.56 µM (inactive) | 2.52 µM (inactive) |  | 11.2 µM (inactive) | 0.767 µM (active) | 13.6 µM (inactive) | 1.62 µM (inactive) | 14.9 µM (inactive) | 4.42 µM (inactive) | 3.1 µM (inactive) | 4.72 µM (inactive) | 2.9 µM (inactive)
C=CCC(C(=O)OC)C1(C(=O)OC)c2[nH]c3ccccc3c2CCN1Cc1ccccc1 (configuration not stated) | 69.5 µM (inactive) | 51.8 µM (inactive) | 83.6 µM (inactive) | > 100 µM (inactive) | 23.4 µM (inactive) |  | > 100 µM (inactive) | > 100 µM (inactive) | > 100 µM (inactive) | 58.9 µM (inactive) | > 100 µM (inactive) | > 100 µM (inactive) | 89.9 µM (inactive) | 54.6 µM (inactive) | 19 µM (inactive) | > 100 µM (inactive) | > 100 µM (inactive) | > 100 µM (inactive)
Cc1c(Cl)ccc2c1NC(=O)C2(O)CC(=O)c1cccc2ccccc12 (configuration not stated) | 69.5 µM (inactive) | > 100 µM (inactive) | > 100 µM (inactive) | > 100 µM (inactive) |  | 98.9 µM (inactive) | 38.9 µM (inactive) | 35.2 µM (inactive) | 90.8 µM (inactive) | > 100 µM (inactive) | 41.9 µM (inactive) | > 100 µM (inactive) | > 100 µM (inactive) | 69.5 µM (inactive) | 73.6 µM (inactive) | > 100 µM (inactive) | > 100 µM (inactive) | > 100 µM (inactive)
O=C1OCC(C(=O)c2cccc(O)c2)C1=O (configuration not stated) | > 100 µM (inactive) | > 100 µM (inactive) | > 100 µM (inactive) | > 100 µM (inactive) | > 100 µM (inactive) | > 100 µM (inactive) | > 100 µM (inactive) |  | > 100 µM (inactive) | > 100 µM (inactive) | > 100 µM (inactive) | > 100 µM (inactive) | > 100 µM (inactive) | > 100 µM (inactive) | > 100 µM (inactive) | > 100 µM (inactive) | > 100 µM (inactive) | > 100 µM (inactive)
O=S(=O)(O)C(O)/C=C/c1ccccc1 (configuration not stated) | 78.5 µM (inactive) | > 100 µM (inactive) | > 100 µM (inactive) | > 100 µM (inactive) |  | > 100 µM (inactive) | > 100 µM (inactive) | > 100 µM (inactive) | > 100 µM (inactive) | > 100 µM (inactive) | > 100 µM (inactive) | > 100 µM (inactive) | > 100 µM (inactive) | > 100 µM (inactive) | > 100 µM (inactive) |  | > 100 µM (inactive) | > 100 µM (inactive)
O=C(COc1ccc2c(=O)cc(-c3ccccc3)oc2c1)N1CCN(c2ccccc2)CC1 | 71.8 µM (inactive) | 51.6 µM (inactive) | 26.4 µM (inactive) | 44.6 µM (inactive) |  | 43 µM (inactive) | 83.8 µM (inactive) | 11.1 µM (inactive) | 36.6 µM (inactive) | 39.2 µM (inactive) | 60.5 µM (inactive) | 27.5 µM (inactive) | > 100 µM (inactive) | > 10 µM (inactive) | 41 µM (inactive) | 71.1 µM (inactive) | 33.1 µM (inactive) | 78.7 µM (inactive)
CC1(c2ccccc2Cl)C(C#N)C(=O)NC(=O)C1C#N (configuration not stated) |  | 35.5 µM (inactive) | 35.6 µM (inactive) | > 100 µM (inactive) | 23.5 µM (inactive) | 30.5 µM (inactive) | 43.8 µM (inactive) | 31.2 µM (inactive) | 28.7 µM (inactive) | 45.5 µM (inactive) | > 10 µM (inactive) | 24.8 µM (inactive) | 34.6 µM (inactive) | 36.4 µM (inactive) | 45.6 µM (inactive) | 34.8 µM (inactive) | 41.3 µM (inactive) | 30.6 µM (inactive)
CC1(C)C=N[N+]2(C)C3C=CC(CC3)C12 (configuration not stated) | > 100 µM (inactive) | > 100 µM (inactive) | > 100 µM (inactive) | > 100 µM (inactive) | > 100 µM (inactive) | > 100 µM (inactive) |  | > 100 µM (inactive) | > 100 µM (inactive) | > 100 µM (inactive) | > 100 µM (inactive) | > 100 µM (inactive) | > 100 µM (inactive) | > 100 µM (inactive) | > 100 µM (inactive) | > 100 µM (inactive) | > 100 µM (inactive) | > 100 µM (inactive)
